Measured values: US20160160268A1, “AMDINOCILLIN FOR RAPID DETERMINATION OF SUSCEPTIBILITY TO BETA-LACTAM ANTIBIOTICS” (THE REGENTS OF THE UNIVERSITY OF CALIFORNIA, priority 2013, published 2016)

Assays:
Assay type in all cases: cell-based
[1] = test system: susceptible strain of E. coli; experiment: Response of pre-rRNA to cefazolin in log phase culture; details: log phase of growth
[2] = test system: antibiotic susceptible and resistant E. coli strains; experiment: Mature rRNA and pre-rRNA response to beta-lactam antibiotics with or without amdinocillin; details: for differentiation of antibiotic-susceptible from antibiotic-resistant bacteria on addition of amdinocillin to the assay: with amdinocillin
Method: As a result of blocking filamentation, levels of mature rRNA and pre-rRNA decrease within 30-45 min when amdinocillin is combined with beta lactam antibiotics. […] For example, at a concentration of 32 μg/ml, cefazolin causes a drop of pre-rRNA within 30 min whether or not amdinocillin is present.
Ampicillin-susceptible E. coli (strain EC135) was treated with ampicillin (16 μg/ml) alone, amdinocillin (1 μg/ml) alone, ampicillin plus amdinocillin, or neither. […] Effects on pre-rRNA were more pronounced than those on mature rRNA.
Ceftriaxone-susceptible E. coli (strain EC103) was treated with ceftriaxone ([…]) alone, amdinocillin ([…]) alone, ceftriaxone plus amdinocillin, or neither. Ceftriaxone-mediated effects on mature rRNA and pre-rRNA occurred 60 min faster with amdinocillin than without amdinocillin.
Cefazolin-susceptible E. coli (strain EC103) was treated with amdinocillin (1 μg/ml) plus cefazolin at concentrations ranging from 0-32 μg/ml.
Graphs illustrating the effects of beta-lactam antibiotics plus amdinocillin on antibiotic susceptible and resistant bacteria can be found in FIGS. 14A-14D. Antibiotic susceptible and resistant bacteria were treated with amdinocillin (1 μg/ml) plus various beta lactam antibiotics including 16 μg/ml cefazolin, 4 μg/ml ceftriaxone, 32 μg/ml piperacillin plus 4 μg/ml tazobactam, and 2 μg/ml imipenem. Differential effects on pre-rRNA of susceptible from resistant bacteria were evident within 30-90 min.

[3] = test system: E. coli (strain EC103) cells; experiment: E. coli cell length (filamentation) measurement
Method: The lengths of ampicillin-susceptible E. coli (strain EC103) cells were measured after treatment for 30 minutes with no antibiotics, ampicillin, or ampicillin plus amdinocillin. Digital photomicrographs of representative cells treated with no antibiotics (16A), ampicillin (16B), and ampicillin plus amdinocillin (16C) are shown.

[4] = test system: E. coli clinical urine isolate EC103; experiment: Electrochemical sensor assay of mature rRNA and pre-rRNA after adding an antibiotic to a growing culture; details: for effect on mature rRNA level: 25 μg/ml Chloramphenicol or 16 μg/ml Gentamicin added at 150 or 210 minutes; for effect on pre-rRNA level: 25 μg/ml Rifampicin, 25 μg/ml Chloramphenicol, 4 μg/ml Ciprofloxacin or 16 μg/ml Gentamicin added at 150 or 210 minutes
Method: Overnight cultures of EC103 were prepared by adding 5 μl of EC103 glycerol stock to 5 ml of MH broth with ampicillin and incubated at 37° C. overnight with shaking. […] Every 30 min, including at 0 min and the overnight culture itself, a 1 ml sample was taken for OD600 measurement and 10-fold serial dilutions (100 μl into 900 μl) were performed in room temperature MH broth. Cell density was determined by plating serial dilutions in triplicate. At each time point, culture samples were transferred to an ice water bath or centrifuged immediately at 4° C. for 3 min at 14,000 rpm.
Electrochemical detection.
Each sensor of the array consisted of a 2.5 mm diameter central working electrode, surrounded by an Au counter electrode and an Au pseudo-reference electrode. […] Washing steps were carried out after each application of reagents by applying a stream of deionized H2O to the sensor surface for approximately 2-3 sec followed by 5 sec of drying under a stream of nitrogen. Prior to addition of the first reagent, the bare gold chips were dried as described above. To functionalize the working sensor surface, a fresh mixture of 0.05 μM thiolated capture probe and 300 μM 1,6-hexanedithiol (96%, Sigma, St. Louis, Mo.) was prepared in 10 mM Tris-HCl, 1 mM EDTA and 0.3 M NaCl (pH 8.0) and allowed to stand at room temperature for 10 min. Aliquots of 6 μl of this mixture were cast over each Au working electrode in the 16-sensor array and incubated overnight at 4° C. in a humidified chamber.

[5] = test system: lawn of E. coli (strains EC135, EC96, EC103, NDM-1); experiment: Kirby-Bauer disc diffusion antibiotic-susceptibility test
Description: FIGS. 15A-15F present digital photomicrographs showing results of Kirby-Bauer disc diffusion antibiotic-susceptibility tests. 6 mm diameter antibiotic discs were placed on agar plates seeded with a lawn of E. coli that were Ampicillin susceptible (strain EC135), Ampicillin resistant (strain EC96), Cefazolin susceptible (strain EC103), Cefazolin resistant (strain EC96), Imipenem susceptible (strain EC103) or Imipenem resistant (strain NDM-1). In each panel the antibiotic disc is on the left and the amdinocillin disc is on the right. Images were obtained after 20 hours of incubation at 37° C.

Compound: Cc1nnc(SCC2=C(C(=O)O)N3C(=O)[C@@H](NC(=O)Cn4cnnn4)[C@H]3SC2)s1 [cefazolin]
- drop in amount of pre-rRNA compared to culture without antibiotic [1]: one-log drop
- time within which the pre-rRNA drop occurred [1]: ≤ 30 min
- dependence of the amdinocillin effect on the antibiotic concentration [2]: dependent on the antibiotic concentration
- concentration dependence of fall in pre-rRNA levels ([2]; cefazolin 0-32 μg/ml plus amdinocillin 1 μg/ml, strain EC103): fell more quickly at higher cefazolin concentrations
- effect on pre-rRNA ([2]; cefazolin 4 μg/ml): does not cause a drop of pre-rRNA unless amdinocillin is present
- time within which pre-rRNA drops ([2]; cefazolin 32 μg/ml, whether or not amdinocillin is present): ≤ 30 min
- differentiation of antibiotic-susceptible from antibiotic-resistant bacteria on addition of amdinocillin to the assay [2]: enables rapid differentiation

Compound: CC1(C)S[C@@H]2[C@H](NC(=O)[C@H](N)c3ccccc3)C(=O)N2[C@H]1C(=O)O [ampicillin]
- average increase in length of E. coli cells ([3]; treatment for 30 minutes, strain EC103): 4 fold
- dependence of the amdinocillin effect on the antibiotic concentration [2]: independent of the antibiotic concentration
- differentiation of antibiotic-susceptible from antibiotic-resistant bacteria on addition of amdinocillin to the assay [2]: enables rapid differentiation

Compound: gentamicin
- effect on mature rRNA level [4]: decrease
- effect on pre-rRNA level [4]: without affecting

Compound: CCN1CCN(C(=O)N[C@@H](C(=O)N[C@@H]2C(=O)N3[C@@H]2SC(C)(C)[C@@H]3C(=O)O)c2ccccc2)C(=O)C1=O [piperacillin]
- differentiation of antibiotic-susceptible from antibiotic-resistant bacteria on addition of amdinocillin to the assay [2]: enables rapid differentiation

Compound: O=C(N[C@H](CO)[C@H](O)c1ccc([N+](=O)[O-])cc1)C(Cl)Cl [chloramphenicol]
- effect on mature rRNA level [4]: decrease
- effect on pre-rRNA level [4]: selective increase

Compound: CO/N=C(\C(=O)N[C@@H]1C(=O)N2C(C(=O)O)=C(COC(C)=O)CS[C@H]12)c1csc(N)n1 [cefotaxime]
- differentiation of antibiotic-susceptible from antibiotic-resistant bacteria on addition of amdinocillin to the assay [2]: enables rapid differentiation

Compound: CC1(C)S[C@@H]2[C@H](/N=C/N3CCCCCC3)C(=O)N2[C@H]1C(=O)O [amdinocillin]
- effect on filamentation caused by beta-lactam antibiotics [3]: prevents filamentation
- effect on ampicillin-induced increase in cell length ([3]; ampicillin plus amdinocillin, 30 minutes, strain EC103): partially blocked
- synergy between amdinocillin and the antibiotics tested ([5]; ampicillin, cefazolin, imipenem discs, 20 hours at 37° C.): Synergy was not observed
- effect of amdinocillin on susceptibility of bacteria to beta-lactam antibiotics ([5]; disc diffusion): did not increase the susceptibility
- effect of amdinocillin alone on rRNA or pre-rRNA levels ([2]; amdinocillin alone): no effect
- effect of amdinocillin on recognition of ampicillin susceptibility ([2]; ampicillin 16 μg/ml, amdinocillin 1 μg/ml, strain EC135): enabled early recognition of ampicillin susceptibility
- effect of amdinocillin on recognition of cefazolin susceptibility ([2]; cefazolin 4 μg/ml, amdinocillin 1 μg/ml, strain EC103): enabled early recognition of cefazolin-susceptibility
- effect of amdinocillin on pre-RNA levels ([2]; cefazolin 32 μg/ml, amdinocillin 1 μg/ml, strain EC103): no effect

Compound: CO/N=C(\C(=O)N[C@@H]1C(=O)N2C(C(=O)O)=C(CSc3nc(=O)c(=O)[nH]n3C)CS[C@H]12)c1csc(N)n1 [ceftriaxone]
- how much faster effects on mature rRNA and pre-rRNA occurred with amdinocillin than without ([2]; ceftriaxone (8 pg/ml), amdinocillin 1 μg/ml, strain EC103): 60 min
